Tests used:
[1] = target: T1, GABA transporter 4 (Mus musculus) (UniProt P31650); assay: Inhibition of mouse GAT4 expressed in HEK293 cells assessed as remaining [3H]GABA uptake at 100 uM preincubated for 25 mins followed by [3H]GABA/unlabeled GABA addition measured after 4 mins by liquid scintillation counting analysis; type: cell-based
T1 sequence (whole entry): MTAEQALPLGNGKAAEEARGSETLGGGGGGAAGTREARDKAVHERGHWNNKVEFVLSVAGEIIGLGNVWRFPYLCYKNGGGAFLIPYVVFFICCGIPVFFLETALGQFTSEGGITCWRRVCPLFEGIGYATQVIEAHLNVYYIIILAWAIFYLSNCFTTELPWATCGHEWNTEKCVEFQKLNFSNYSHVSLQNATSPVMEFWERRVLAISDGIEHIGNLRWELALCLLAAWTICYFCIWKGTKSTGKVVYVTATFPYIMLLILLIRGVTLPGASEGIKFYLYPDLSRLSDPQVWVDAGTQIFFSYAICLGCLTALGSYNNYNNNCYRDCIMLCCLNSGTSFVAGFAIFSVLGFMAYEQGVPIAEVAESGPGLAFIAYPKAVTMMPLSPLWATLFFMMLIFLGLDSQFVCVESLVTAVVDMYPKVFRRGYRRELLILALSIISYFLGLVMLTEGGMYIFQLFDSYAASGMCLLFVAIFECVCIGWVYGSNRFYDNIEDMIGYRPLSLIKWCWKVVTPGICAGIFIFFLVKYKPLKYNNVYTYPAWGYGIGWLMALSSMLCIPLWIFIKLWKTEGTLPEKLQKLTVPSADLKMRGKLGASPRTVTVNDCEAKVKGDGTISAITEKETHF

[2] = target: Sodium- and chloride-dependent GABA transporter 1 (Mus musculus) (UniProt P31648); assay: Displacement of NO 711 from mouse GAT1 expressed in HEK293 cell membranes assessed as remaining marker bound to protein at 100 uM after 40 mins by LC-ESI-MS-MS-based MS binding assay
[3] = tested on: Sodium- and chloride-dependent betaine transporter (Mus musculus); assay: Inhibition of mouse GAT2 expressed in HEK293 cells assessed as remaining [3H]GABA uptake at 100 uM preincubated for 25 mins followed by [3H]GABA/unlabeled GABA addition measured after 10 mins by liquid scintillation counting analysis
[4] = target: Sodium- and chloride-dependent GABA transporter 1 (Mus musculus) (UniProt P31648); assay: Inhibition of mouse GAT1 expressed in HEK293 cells assessed as remaining [3H]GABA uptake at 100 uM preincubated for 25 mins followed by [3H]GABA/unlabeled GABA addition measured after 4 mins by liquid scintillation counting analysis; type: cell-based
[5] = target: T2, Sodium- and chloride-dependent GABA transporter 1 (Mus musculus, UniProt P31648); assay: Displacement of NO 711 from mouse GAT1 expressed in HEK293 cell membranes after 40 mins by LC-ESI-MS-MS-based MS binding assay
[6] = tested on: Sodium- and chloride-dependent GABA transporter 2 (Mus musculus); assay: Inhibition of mouse GAT3 expressed in HEK293 cells assessed as remaining [3H]GABA uptake at 100 uM preincubated for 25 mins followed by [3H]GABA/unlabeled GABA addition measured after 4 mins by liquid scintillation counting analysis
[7] = target: T2, Sodium- and chloride-dependent GABA transporter 1; assay: Inhibition of mouse GAT1 expressed in HEK293 cells assessed as [3H]GABA uptake preincubated for 25 mins followed by [3H]GABA/unlabeled GABA addition measured after 4 mins by liquid scintillation counting analysis; type: cell-based
[8] = target: Sodium- and chloride-dependent GABA transporter 1 (Mus musculus) (UniProt P31648); assay: Displacement of NO 711 from mouse GAT1 expressed in HEK293 cell membranes assessed as remaining marker bound to protein at 1 mM after 40 mins by LC-ESI-MS-MS-based MS binding assay
[9] = target: T1, GABA transporter 4 (Mus musculus); assay: Inhibition of mouse GAT4 expressed in HEK293 cells assessed as remaining [3H]GABA uptake at 1 mM preincubated for 25 mins followed by [3H]GABA/unlabeled GABA addition measured after 4 mins by liquid scintillation counting analysis; type: cell-based
[10] = target: T3, GABA transporter 4 (Mus musculus, UniProt P31650); assay: Inhibition of mouse GAT4 expressed in HEK293 cells assessed as [3H]GABA uptake preincubated for 25 mins followed by [3H]GABA/unlabeled GABA addition measured after 4 mins by liquid scintillation counting analysis; type: cell-based
T3 sequence (P31650 whole entry): T1 sequence (whole entry)

[11] = tested on: Sodium- and chloride-dependent GABA transporter 2 (Mus musculus); assay: Inhibition of mouse GAT3 expressed in HEK293 cells assessed as remaining [3H]GABA uptake at 1 mM preincubated for 25 mins followed by [3H]GABA/unlabeled GABA addition measured after 4 mins by liquid scintillation counting analysis
[12] = target: Sodium- and chloride-dependent GABA transporter 1 (Mus musculus) (UniProt P31648); assay: Inhibition of mouse GAT1 expressed in HEK293 cells assessed as remaining [3H]GABA uptake at 1 mM preincubated for 25 mins followed by [3H]GABA/unlabeled GABA addition measured after 4 mins by liquid scintillation counting analysis; type: cell-based

| SMILES | Activity [1] | Activity [2] | Activity [3] | Activity [4] | Ki [5] | Activity [6] | IC50 [7] | also measured |
| --- | --- | --- | --- | --- | --- | --- | --- | --- |
| O=C(O)[C@H]1CNCC[C@H]1CC/C=C/c1ccccc1Cc1ccccc1 (racemic) | 49.7% | 79.6% | 62.5% | 43.9% |  |  |  |  |
| O=C(O)C1CCCN(CCC=C(c2ccccc2)c2ccccc2)C1 (configuration not stated) |  |  |  |  | 0.186 µM |  |  |  |
| CN1CC[C@H](CCC#Cc2ccccc2Cc2ccccc2)[C@@H](C(=O)O)C1 (racemic) | 84.4% | 73.9% | 57.5% | 60.9% |  | 71% |  |  |
| O=C(O)[C@H]1CNCC[C@@H]1CC/C=C/c1ccccc1Cc1ccccc1 (racemic) | 92.4% | 79% | 85.1% | 86.3% |  | 78.1% |  |  |
| C#CCCC[C@H]1CCNC[C@@H]1C(=O)O (racemic) |  |  |  |  |  |  | 1150 µM | Activity [8]: 87.2%; Activity [9]: 84.9% |
| O=C(O)[C@H]1CNCC[C@@H]1CCCC/C=C/c1ccccc1Cc1ccccc1 (racemic) |  | 78.5% |  | 60.5% |  |  |  |  |
| O=C(O)[C@H]1CNCC[C@H]1CC/C=C/c1ccccc1-c1ccccc1 (racemic) | 63.5% | 76.2% | 81.2% | 68.6% |  | 55.3% |  |  |
| O=C(O)[C@H]1CNCC[C@H]1CCCC#Cc1ccccc1Cc1ccccc1 (racemic) |  |  | 51.1% |  | 31 µM |  | 40.8 µM | IC50 [10]: 62.5 µM |
| O=C(O)[C@H]1CNCC[C@H]1CCC#Cc1ccccc1Cc1ccccc1 (racemic) | 63.9% | 82.7% | 68.4% | 70.1% |  | 53.9% |  |  |
| O=C(O)[C@H]1CNCC[C@H]1CCC/C=C/c1ccccc1Cc1ccccc1 (racemic) |  |  |  |  | 68.1 µM |  | 64.1 µM |  |
| CN1CC[C@H](CCCC#Cc2ccccc2-c2ccccc2)[C@@H](C(=O)O)C1 (racemic) | 69.4% | 64.4% | 51.9% |  |  | 56.4% | 37.4 µM |  |
| O=C(O)[C@H]1CNCC[C@@H]1CC/C=C/c1ccccc1-c1ccccc1 (racemic) | 84.7% |  | 88.7% |  | 33.2 µM | 53.5% | 60.5 µM |  |
| C#CCC[C@H]1CCNC[C@@H]1C(=O)O (racemic) |  |  |  |  |  |  |  | Activity [8]: 88.9%; Activity [9]: 90.4% |
| O=C(O)[C@H]1CNCC[C@H]1CCCC#Cc1ccccc1-c1ccccc1 (racemic) | 77.8% | 83.1% | 67.7% | 80% |  | 72.9% |  |  |
| O=C(O)[C@H]1CNCC[C@@H]1CCC/C=C/c1ccccc1-c1ccccc1 (racemic) | 76.1% | 86.6% | 98.3% | 73.9% |  | 75.7% |  |  |
| O=C(O)[C@H]1CNCC[C@H]1CCCC/C=C/c1ccccc1Cc1ccccc1 (racemic) |  |  |  |  | 35.4 µM |  |  |  |
| O=C(O)[C@H]1CNCC[C@H]1CCCC/C=C/c1ccccc1-c1ccccc1 (racemic) |  |  |  |  | 27.4 µM |  | 24.5 µM | IC50 [10]: 36.7 µM |
| O=C(O)[C@H]1CNCC[C@@H]1CCC/C=C/c1ccccc1Cc1ccccc1 (racemic) |  |  |  |  | 77.1 µM |  | 107 µM |  |
| C=CCC[C@H]1CCNC[C@@H]1C(=O)O (racemic) |  |  | 81.2% |  |  |  |  | Activity [11]: 73.1%; Activity [8]: 79.9%; Activity [12]: 63.6%; Activity [9]: 86.1% |
| CN1CC[C@H](CC/C=C/c2ccccc2-c2ccccc2)[C@@H](C(=O)O)C1 (racemic) | 75.5% |  | 108% |  | 14.3 µM | 67.9% | 26.5 µM |  |
| CN1CC[C@H](CC/C=C/c2ccccc2Cc2ccccc2)[C@@H](C(=O)O)C1 (racemic) |  |  |  |  | 39.8 µM |  | 36.7 µM |  |
| O=C(O)[C@H]1CNCC[C@H]1CCC/C=C/c1ccccc1-c1ccccc1 (racemic) | 52.5% | 45.9% | 64.8% |  |  | 54.5% | 66.8 µM |  |
| CN1CC[C@H](CCC/C=C/c2ccccc2Cc2ccccc2)[C@@H](C(=O)O)C1 (racemic) | 45.7% |  |  |  | 39.9 µM |  | 24.7 µM |  |
| CN1CC[C@H](CCC#Cc2ccccc2-c2ccccc2)[C@@H](C(=O)O)C1 (racemic) | 81.1% | 86.5% | 68.4% | 79.8% |  | 81.9% |  |  |
| C=CCCCC[C@H]1CCNC[C@@H]1C(=O)O (racemic) |  |  |  |  | 818 µM |  | 740 µM | Activity [9]: 89.9% |
| CN1CC[C@H](CCC/C=C/c2ccccc2-c2ccccc2)[C@@H](C(=O)O)C1 (racemic) | 57.9% |  | 90.8% |  | 72.4 µM | 53.8% | 34.8 µM |  |
| O=C(O)[C@H]1CNCC[C@H]1CCC#Cc1ccccc1-c1ccccc1 (racemic) | 86.9% | 83.9% | 52% | 60.4% |  | 58.2% |  |  |
| CCCC[C@H]1CCNC[C@@H]1C(=O)O (racemic) |  |  |  |  |  |  |  | Activity [8]: 91.7%; Activity [12]: 69.9%; Activity [9]: 87.5% |
| O=C(O)[C@H]1CNCC[C@@H]1CCCC/C=C/c1ccccc1-c1ccccc1 (racemic) |  |  | 63.7% |  | 71.8 µM |  | 75.5 µM | IC50 [10]: 83.6 µM |
| CN1CC[C@H](CCCC#Cc2ccccc2Cc2ccccc2)[C@@H](C(=O)O)C1 (racemic) | 50% |  |  |  | 28.6 µM |  | 25.9 µM |  |

— ChEMBL document CHEMBL3774377 (Bioorg Med Chem, 2016)
